Marks after values point to notes of the source that are not given here.
Columns and labels:
Format in all cases: in vivo, guinea pig
[1] = tested on: model of bronchial asthma in guinea pigs; assay: Content of cell elements in BAL in the model of bronchial asthma in guinea pigs
Experimental: (§1) Bronchial asthma in guinea pigs was induced by a standard method [Ricciardolo F L, Nijkamp F, De Rose V, Folkerts G. The guinea pig as an animal model for asthma// Current Drug Targets. 2008 June; 9(6):452-65]. The animals were immunized by one parenteral administration of 0.5 mL of a solution comprising 100 μg/mL ovalbumin (Sigma) and 100 mg/mL aluminium hydroxide. Intact animals received a physiological saline solution in an amount of 0.5 mL.
(§2) On days 29, 30 and 31, hyperactivity of the respiratory airways was provoked by inhalation administration of ovalbumin in ascending concentrations of 0.1, 0.3, and 0.5 mg/mL on days 1, 2, and 3 of the provocation, respectively. The inhalation lasted 5 minutes or until asphyxia symptoms became apparent (fall to one side). On day 32, the animals received a challenging dose of ovalbumin (1 mg/mL) for 5 minutes, while assessing a bronchospastic reaction.
(§3) The studied compounds were administered to the animals once daily every day for 6 or 10 days; the administration was terminated two days before the administration of the challenging dose of antigen.
(§4) The bronchoalveolar lavage (BAL) and cardiac cavity blood were derived from the animals 24 hours after administration of the challenging dose. The BAL was collected under anesthesia by lavaging the lungs with 5 mL of a physiological saline solution heated to 37° C. through the trachea, using a syringe dosing device.
The absolute number of cell elements in 1 μL of the lavage (cytosis) was counted in the bronchoalveolar lavage, using the Goryaev camera. Then, the BAL was centrifuged at 200 g for 10 minutes. The residue was used to prepare swabs that were fixed in methanol and stained according to Romanovsky-Giemsa to count endopulmonary cytogram.
(§5) The study comprised 3 experiments, wherein the first one was directed to the evaluation of the effect of claimed compounds 1-6 on the cell composition of the BAL, the second and the third experiments were aimed at evaluating the effect of compounds 1 and 2 on the cell composition of the BAL, the cell composition of the blood, and on the bronchospasm severity.

[2] = tested on: model of allergic rhinitis in guinea pigs; assay: Content of cell elements in the nasal lavage in the model of allergic rhinitis in guinea pigs; details: 14 mg/kg intragastric, 3 times; nasal lavage 24 hours after last ovalbumin; n = 8
Experimental: The model of allergic rhinitis in guinea pigs was realized by a standard method [Vishnu N. Thakare, M. M. Osama, Suresh R. Naik. […] 2013 September; 17(1):18-25].
Guinea pigs (250-300 g) were immunized with 4-time (on days 0, 7, 14, and 21) intragastric administration of ovalbumin (100 μg/pig) and aluminium hydroxide (5 mg/pig), both of which were diluted and suspended in a physiological saline solution. […], a solution of ovalbumin (60 mg/mL) was administered intranasally to each nostril of the animals at a dose 20 μL. On day 35, the animals received subcutaneously an ovalbumin solution (200 μg/mL, 25 μL); the animal back was previously shaved in the site of administration. Swelling and redness at the injection site served as a support of sensibilisation. On day 42 of the study, an ovalbumin solution (60 mg/mL, 20 μL/nostril) was administered intranasally. A group of pseudoimmunized animals was formed to control the formation of exactly allergic inflammation: on days 0, 7, 14, and 21, the pigs received a solution of aluminium hydroxide (5 mg/pig), and on days 28 and 35, they received a physiological saline solution, and on day 42, a solution of ovalbumin (60 mg/mL, 20 μL/nostril).
The studied compounds (14 mg/kg) were administered 3 times by the intragastric route: 48, 24, and 1 hour before the last administration of ovalbumin. The reference preparation, dexamethasone, was administered one time by the intragastric route, 3 hours before the last intranasal administration of ovalbumin.
Clinical manifestations, such as the number of sneezes and nose scratchings, were registered for 2 hours after the last administration of ovalbumin. Nasal lavage was taken 24 hours after the last administration of ovalbumin, and in this lavage, the total lymphocyte count and leukocyte formula were determined. The number of guinea pigs in a group was 8.

[3] = tested on: model of bronchial asthma in guinea pigs; assay: Severity of bronchospasm in the model of bronchial asthma in guinea pigs; details: Experiment No. 1, 10 times, n = 8
Experimental: as §1, §2, §3
The bronchospastic reaction was assessed by a change in the rate and depth of the respiratory movements and by the asphyxia symptom such as fall to one side. Spirogram was registered by laboratory experimental equipment (ADInstruments, Australia), using a base recording station (PowerLab 8sp.) and software LabCart. The registration was made using airflow sensors for laboratory animals and a spirograph with an integrated amplifier (ADInstruments).
as §5

[4] = tested on: model of bronchial asthma in guinea pigs; assay: Content of cell elements in the blood in the model of bronchial asthma in guinea pigs; details: Table 6 Experiment No. 1, 10 times, n = 8
Experimental: as §1, §2, §3, §4
The blood was analyzed with a hemocytometer to determine leykoformula.
as §5

[5] = Table 4, 14 mg/kg, 10 times of administration, n = 9
[6] = Table 5 Experiment No. 1, 0.045 mg/kg, 10 times, n = 8
[7] = Table 5 Experiment No. 1, 0.14 mg/kg, 10 times, n = 8
[8] = Table 5 Experiment No. 1, 14 mg/kg, 10 times, n = 8

O=C1CCCC(=O)N1CCc1cnc[nH]1 [Compound 1, 1-(2-(1H-imidazol-4-yl)ethyl)piperidine-2,6-dione]
Eosinophils in BAL [1, 5]: 0.89 ± 0.23*& 10^9/L
Lymphocytes in BAL [1, 5]: 0.70 ± 0.13* 10^9/L
Monocytes in BAL [1, 5]: 0.35 ± 0.09* 10^9/L
Neutrophils in BAL [1, 5]: 0.36 ± 0.09 10^9/L
Cytosis in BAL [1, 6]: 12.8 ± 0.2* 10^9/L
Eosinophils in BAL [1, 6]: 0.45 ± 0.07*& 10^9/L
Lymphocytes in BAL [1, 6]: 0.10 ± 0.04& 10^9/L
Monocytes in BAL [1, 6]: 0.52 ± 0.092* 10^9/L
Neutrophils in BAL [1, 6]: 0.19 ± 0.08 10^9/L
Cytosis in BAL [1, 7]: 10.5 ± 0.2*& 10^9/L
Eosinophils in BAL [1, 7]: 0.41 ± 0.10*& 10^9/L
Lymphocytes in BAL [1, 7]: 0.13 ± 0.04& 10^9/L
Monocytes in BAL [1, 7]: 0.43 ± 0.076* 10^9/L
Neutrophils in BAL [1, 7]: 0.07 ± 0.01 10^9/L
Cytosis in BAL [1, 8]: 14.6 ± 0.3* 10^9/L
Eosinophils in BAL [1, 8]: 0.45 ± 0.12*& 10^9/L
Lymphocytes in BAL [1, 8]: 0.15 ± 0.026*& 10^9/L
Monocytes in BAL [1, 8]: 0.7 ± 0.16* 10^9/L
Neutrophils in BAL [1, 8]: 0.15 ± 0.03* 10^9/L
Eosinophils, content of cell elements in 1 μL of nasal lavage [2]: 521 ± 129& in 1 μL of nasal lavage
Leukocytes, content of cell elements in 1 μL of nasal lavage [2]: 1300 ± 254& in 1 μL of nasal lavage
Lymphocytes, content of cell elements in 1 μL of nasal lavage [2]: 6 ± 6 in 1 μL of nasal lavage
Macrophages, content of cell elements in 1 μL of nasal lavage [2]: 405 ± 130 in 1 μL of nasal lavage
Neutrophils, content of cell elements in 1 μL of nasal lavage [2]: 243 ± 58*& in 1 μL of nasal lavage
The number of animals with moderate bronchospasm (without acute phase, with subacute phase, with breath management) ([3]; 0.045 mg/kg): 1
The number of animals with moderate bronchospasm (without acute phase, with subacute phase, without breath management) ([3]; 0.045 mg/kg): 2
The number of animals with severe bronchospasm (in acute and subacute phase) ([3]; 0.045 mg/kg): 0
The number of animals without bronchospasm ([3]; 0.045 mg/kg): 5
The number of animals with moderate bronchospasm (without acute phase, with subacute phase, with breath management) ([3]; 0.14 mg/kg): 1
The number of animals with moderate bronchospasm (without acute phase, with subacute phase, without breath management) ([3]; 0.14 mg/kg): 0
The number of animals with severe bronchospasm (in acute and subacute phase) ([3]; 0.14 mg/kg): 0
The number of animals without bronchospasm ([3]; 0.14 mg/kg): 7
The number of animals with moderate bronchospasm (without acute phase, with subacute phase, with breath management) ([3]; 14 mg/kg): 0
The number of animals with moderate bronchospasm (without acute phase, with subacute phase, without breath management) ([3]; 14 mg/kg): 2
The number of animals with severe bronchospasm (in acute and subacute phase) ([3]; 14 mg/kg): 1
The number of animals without bronchospasm ([3]; 14 mg/kg): 5
Banded neutrophils in the blood ([4]; 0.045 mg/kg): 0.31 ± 0.10 10^9/L
Basophils in the blood ([4]; 0.045 mg/kg): 0 ± 0 10^9/L
Cytosis in the blood ([4]; 0.045 mg/kg): 9.03 ± 1.40& 10^9/L
Eosinophils in the blood ([4]; 0.045 mg/kg): 0.19 ± 0.04& 10^9/L
Lymphocytes in the blood ([4]; 0.045 mg/kg): 4.80 ± 0.84* 10^9/L
Monocytes in the blood ([4]; 0.045 mg/kg): 0.29 ± 0.08 10^9/L
Segmented neutrophils in the blood ([4]; 0.045 mg/kg): 2.92 ± 0.65 10^9/L
Banded neutrophils in the blood ([4]; 0.14 mg/kg): 0.19 ± 0.05& 10^9/L
Basophils in the blood ([4]; 0.14 mg/kg): 0 ± 0 10^9/L
Cytosis in the blood ([4]; 0.14 mg/kg): 9.11 ± 1.07*& 10^9/L
Eosinophils in the blood ([4]; 0.14 mg/kg): 0.09 ± 0.03& 10^9/L
Lymphocytes in the blood ([4]; 0.14 mg/kg): 5.25 ± 0.89* 10^9/L
Monocytes in the blood ([4]; 0.14 mg/kg): 0.33 ± 0.06* 10^9/L
Segmented neutrophils in the blood ([4]; 0.14 mg/kg): 2.23 ± 0.58& 10^9/L
Banded neutrophils in the blood ([4]; 14 mg/kg): 0.27 ± 0.06* 10^9/L
Basophils in the blood ([4]; 14 mg/kg): 0 ± 0 10^9/L
Cytosis in the blood ([4]; 14 mg/kg): 8.90 ± 0.25*& 10^9/L
Eosinophils in the blood ([4]; 14 mg/kg): 0.13 ± 0.04& 10^9/L
Lymphocytes in the blood ([4]; 14 mg/kg): 4.45 ± 0.25* 10^9/L
Monocytes in the blood ([4]; 14 mg/kg): 0.33 ± 0.06* 10^9/L
Segmented neutrophils in the blood ([4]; 14 mg/kg): 3.66 ± 0.22* 10^9/L

Source: patent US10220029B2, “Pharmaceutical composition comprising glutarimide derivatives and use thereof in the treatment of eosinophilic diseases” (OBSCHESTVO S ORGANICHENNOI OTVETSTVENNOSTIYU …, priority 2013, dated 2019)
